In ChEMBL document CHEMBL1152001 (Bioorg Med Chem Lett, 1993):
Non-standard residues stand in square brackets, D forms with d. Residues, ends and D or L forms follow the SMILES beside them. pGlu = O=C1CC[C@@H](C(=O)O)N1

molecular target: Substance-P receptor (Rattus norvegicus, UniProt P14600); experiment: Tested for inhibition of tachykinin 1 (NK1) receptor in rat brain synaptosomal membranes using [125I]BH-SP as radioligand; format: cell membranes, Membrane
Sequence (P14600 whole entry): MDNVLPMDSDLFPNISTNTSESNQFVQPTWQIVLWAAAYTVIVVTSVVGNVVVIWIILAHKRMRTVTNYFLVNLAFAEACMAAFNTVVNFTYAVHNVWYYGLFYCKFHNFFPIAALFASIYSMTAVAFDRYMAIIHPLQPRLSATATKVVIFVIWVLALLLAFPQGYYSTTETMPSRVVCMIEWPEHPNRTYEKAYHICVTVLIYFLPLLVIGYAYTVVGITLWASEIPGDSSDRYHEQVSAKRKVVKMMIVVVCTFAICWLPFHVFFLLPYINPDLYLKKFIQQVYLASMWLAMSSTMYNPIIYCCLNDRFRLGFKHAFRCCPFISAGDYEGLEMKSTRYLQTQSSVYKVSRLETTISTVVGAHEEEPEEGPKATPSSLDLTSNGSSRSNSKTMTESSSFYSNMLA

Row | IC50 | Structure (SMILES)
1 | 2.3 nM | CSCC[C@H](NC(=O)[C@H](CC(C)C)NC(=O)CNC(=O)[C@H](Cc1ccc(O)cc1)NC(=O)[C@H](Cc1ccccc1)NC(=O)[C@H](CCCCN)NC(=O)[C@H](CC(N)=O)NC(=O)[C@@H]1CCCN1C(=O)[C@H](CC(=O)O)NC(=O)[C@H](C)NC(=O)[C@@H]1CCC(=O)N1)C(N)=O ([pGlu]ADPNKFYGLM-NH2)
2 | 31 nM | CC[C@H](C)[C@H](NC(=O)[C@H](Cc1ccccc1)NC(=O)[C@H](C)NC(=O)[C@H](CC(=O)O)NC(=O)[C@H](CCCCN)NC(=O)[C@H](CO)NC(=O)[C@@H]1CCCN1C(=O)[C@@H]1CCC(=O)N1)C(=O)NCC(=O)N[C@@H](CC(C)C)C(=O)N[C@@H](CCSC)C(N)=O ([pGlu]PSKDAFIGLM-NH2)
3 | 75 nM | CSCC[C@H](NC(=O)[C@H](CC(C)C)NC(=O)CNC(=O)[C@@H](NC(=O)[C@H](Cc1ccccc1)NC(=O)[C@H](CCC(N)=O)NC(=O)[C@H](CC(=O)O)NC(=O)[C@H](CO)NC(=O)[C@H](CCCCN)NC(=O)[C@@H]1CCCN1C(=O)[C@@H](NC(=O)[C@@H](N)CC(=O)O)C(C)C)C(C)C)C(N)=O [KASSININ]
4 | 870 nM | CSCC[C@H](NC(=O)[C@H](CC(C)C)NC(=O)CNC(=O)[C@@H](NC(=O)[C@H](Cc1ccccc1)NC(=O)[C@H](Cc1ccccc1)NC(=O)[C@H](CC(=O)O)NC(=O)[C@H](Cc1c[nH]cn1)NC(=O)[C@H](CCSC)NC(=O)[C@@H](N)CC(=O)O)C(C)C)C(N)=O [NEUROKININ B]
